Measurements from patent US8846697B2, “Purine analogs” (The Regents of the University of California, priority 2006, dated 2014).
Entries after “also recorded” stand apart in the source; their conditions may differ.

Test system: human PBMC
Test: Interferon α induction in human PBMC (Luminex, Beadlyte Human MultiCytokine kit)
Type: cell-based
Design: key to IFN-α (Interferon concentration): b: Below lower limit of detection
Conditions: for interferon inducing activity (in words) / EC50 / IFN-α (Interferon concentration): human PBMC; for interferon inducing activity (in words): 1 μM; for EC50: 10 μM to 10 nM, composited from three donors, read-out: EC50 (concentration at which 50% of the maximal IFN concentration was achieved); for EC50 / IFN-α (Interferon concentration): 24 hr; for IFN-α (Interferon concentration): all compounds tested at 1 μM, averages from four donors
Description: Reaction of 8-bromo compound 5 with NaN3 followed by Raney-Ni catalyzed hydrogenation furnished compound 6 in good yield. Acylation of compound 6 with ethylchloroformate led to the ethylcarbamate, compound 27, which was converted to the ureido compound 28 by reaction with methanolic ammonia. All compounds were tested for their ability to induce the production of interferon α in human PBMC compared to compound 4 as a positive control. Human blood samples were obtained from the San Diego Blood Bank. Peripheral blood mononuclear cells (PBMC) were isolated by density-gradient centrifugation over Ficoll-Hypaque (Amersham Pharmacia). Cells were resuspended in RPMI 1640 medium, supplemented with 10% fetal bovine serum (FBS), L-glutamine, and penicillin/streptomycin (RP10; Invitrogen, Carlsbad, Calif.), plated at 10^6 cells/well in 96-well plates, and stimulated with compounds at 1 μM final concentration for 24 hr. at 37° C., 5% CO2. The IFN-α level in the supernatants was measured by Luminex (Austin, Tex.) using the Beadlyte Human MultiCytokine kit (Upstate, Charlottesville, Va.), according to the manufacturer's instructions. Results presented in Table 2 are averages of data composited from four different donors. […] Detailed analytical data for these compounds is as follows:
For this dose response study, cells were treated with the listed compounds at concentrations ranging from 10 μM to 10 nM for 24 hr. The data shown in Table 3 are composited from three different donors, and a non-linear regression curve fit analysis was performed using GraphPad Prism software version 4.0b (San Diego, Calif.) to determine the EC50.

| SMILES | interferon inducing activity (in words) | EC50 [µM] | IFN-α (Interferon concentration) | interferon inducing activity (in words) (listed as hydroxypropyl) | EC50 (in words) (interferon induction in human PBMC) |
| --- | --- | --- | --- | --- | --- |
| CCNc1nc2c(N)nc(OCCOC)nc2n1Cc1ccccc1 [Compound 8] | most active; also recorded: superior to the others | 4.42 | 80.30 pg/mL |  |  |
| COCCOc1nc(N)c2nc(NCC3CCCO3)n(Cc3ccccc3)c2n1 (stereo not drawn) [Compound 16] |  |  | b |  |  |
| COCCOc1nc(N)c2nc(NCCc3ccccc3)n(Cc3ccccc3)c2n1 [Compound 18] | not active |  | 1.33 pg/mL |  |  |
| COCCOc1nc(N)c2nc(NCc3ccccc3)n(Cc3ccccc3)c2n1 [Compound 17] |  |  | b |  |  |
| COCCOc1nc(N)c2nc(NCCCCO)n(Cc3ccccc3)c2n1 [Compound 15] | devoid of activity |  | b |  |  |
| CCCNc1nc2c(N)nc(OCCOC)nc2n1Cc1ccccc1 [Compound 9] |  |  | 8.80 pg/mL |  |  |
| COCCOc1nc(N)c2nc(NCCc3c[nH]c4ccccc34)n(Cc3ccccc3)c2n1 [Compound 26] | not active |  | b |  |  |
| COCCOc1nc(N)c2nc(N3CCOCC3)n(Cc3ccccc3)c2n1 [Compound 25] | not active |  | 0.41 pg/mL |  |  |
| COCCOc1nc(N)c2nc(NCC3CCCCC3)n(Cc3ccccc3)c2n1 [Compound 24] |  |  | b |  |  |
| COCCOc1nc(N)c2nc(N(CCO)CCO)n(Cc3ccccc3)c2n1 [Compound 13] | abrogated activity |  | 0.82 pg/mL |  |  |
| COCCNc1nc2c(N)nc(OCCOC)nc2n1Cc1ccccc1 [Compound 21] |  |  | b |  |  |
| COCCOc1nc(N)c2nc(NC(N)=O)n(Cc3ccccc3)c2n1 [Compound 28] |  |  | b |  |  |
| COCCOc1nc(N)c2nc(N)n(Cc3ccccc3)c2n1 [Compound 6] | completely removed all interferon inducing activity | > 10 | 35.25 pg/mL |  |  |
| CCOC(=O)Nc1nc2c(N)nc(OCCOC)nc2n1Cc1ccccc1 [Compound 27] |  |  | 1.03 pg/mL |  |  |
| CCCCNc1nc2c(N)nc(OCCOC)nc2n1Cc1ccccc1 [Compound 10] |  |  | 0.73 pg/mL |  |  |
| COCCOc1nc(N)c2nc(NCCO)n(Cc3ccccc3)c2n1 [Compound 12] | most active; also recorded: activity was enhanced somewhat | 5.33 | 99.21 pg/mL |  |  |
| COCCOc1nc(N)c2nc(NCCCO)n(Cc3ccccc3)c2n1 [Compound 14] | most active | 3.2 | 113.18 pg/mL | about equally active |  |
| CNc1nc2c(N)nc(OCCOC)nc2n1Cc1ccccc1 [Compound 7] |  |  | b |  |  |
| CCN(CC)c1nc2c(N)nc(OCCOC)nc2n1Cc1ccccc1 [Compound 11] | activity is lost |  | b |  |  |
| COCCOc1nc(N)c2nc(NN)n(Cc3ccccc3)c2n1 [Compound 29] |  |  | 0.21 pg/mL |  |  |
| COCCOc1nc(N)c2[nH]c(=O)n(Cc3ccccc3)c2n1 [Compound 4, 9-benzyl-2-methoxyethoxy-8-oxoadenine, reference compound] |  | 0.14 | 418.00 pg/mL |  |  |
| COCCOc1nc(N)c2nc(NCCN3CCOCC3)n(Cc3ccccc3)c2n1 [Compound 19] | most active; also recorded: highest activity | 0.79 | 110.48 pg/mL |  | submicromolar range |
| COCCOc1nc(N)c2nc(NCCN(CCO)CCO)n(Cc3ccccc3)c2n1 [Compound 22] |  |  | b |  |  |
| COCCOc1nc(N)c2nc(NCCN3CCCCC3)n(Cc3ccccc3)c2n1 [Compound 20] | not active |  | b |  |  |
| COCCOc1nc(N)c2nc(NCCCN(CCO)CCO)n(Cc3ccccc3)c2n1 [Compound 23] |  |  | b |  |  |
